melting point [°C]	SMILES
121 to 122	COCc1cn(-c2ccccc2)nc1OCc1ccc(OCc2nc(-c3ccco3)oc2C)c(OC)c1 [Example 101, 2-(2-furyl)-4-{[2-methoxy-4-({[4-(methoxymethyl)-1-phenyl-1H-pyrazol-3-yl]oxy}methyl)phenoxy]methyl}-5-methyl-1,3-oxazole]
103 to 104	CNCc1cn(-c2ccccc2)nc1OCc1ccc(OCc2nc(-c3ccco3)oc2C)c(OC)c1 [Example 102, N-({3-[(4-{[2-(2-furyl)-5-methyl-1,3-oxazol-4-yl]methoxy}-3-methoxybenzyl)oxy]-1-phenyl-1H-pyrazol-4-yl}methyl)-N-methylamine]
123 to 124	COc1cc(COc2nn(-c3ccccc3)cc2CCO)ccc1OCc1nc(-c2ccco2)oc1C [Example 104, 2-{3-[(4-{[2-(2-furyl)-5-methyl-1,3-oxazol-4-yl]methoxy}-3-methoxybenzyl)oxy]-1-phenyl-1H-pyrazol-4-yl}ethanol]
215 to 216	COc1cc(COc2nn(-c3ccccc3)cc2/C=C2\SC(=O)N(C)C2=O)ccc1OCc1nc(-c2ccco2)oc1C [Example 105, (5Z)-5-({3-[(4-{[2-(2-furyl)-5-methyl-1,3-oxazol-4-yl]methoxy}-3-methoxybenzyl)oxy]-1-phenyl-1H-pyrazol-4-yl}methylene)-3-methyl-1,3-thiazolidine-2,4-dione]
111 to 112	COc1cc(COc2nn(-c3ccccc3)cc2CC2SC(=O)N(C)C2=O)ccc1OCc1nc(-c2ccco2)oc1C (centres unmarked) [Example 106, 5-({3-[(4-{[2-(2-furyl)-5-methyl-1,3-oxazol-4-yl]methoxy}-3-methoxybenzyl)oxy]-1-phenyl-1H-pyrazol-4-yl}methyl)-3-methyl-1,3-thiazolidine-2,4-dione]
153 to 154	COc1cc(COc2nn(-c3ccccc3)cc2-c2cnco2)ccc1OCc1nc(-c2ccco2)oc1C [Example 107, 2-(2-furyl)-4-{[2-methoxy-4-({[4-(1,3-oxazol-5-yl)-1-phenyl-1H-pyrazol-3-yl]oxy}methyl)phenoxy]methyl}-5-methyl-1,3-oxazole]
120 to 121	COc1cc(COc2nn(-c3ccccc3)cc2/C=C/CO)ccc1OCc1nc(-c2ccco2)oc1C [Example 108, (2E)-3-{3-[(4-([2-(2-furyl)-5-methyl-1,3-oxazol-4-yl]methoxy}-3-methoxybenzyl)oxy]-1-phenyl-1H-pyrazol-4-yl}-2-propen-1-ol]
134 to 135	COc1cc(COc2nn(-c3ccccc3)cc2/C=C/C=O)ccc1OCc1nc(-c2ccco2)oc1C [Example 109, (2E)-3-{3-[(4-{[2-(2-furyl)-5-methyl-1,3-oxazol-4-yl]methoxy}-3-methoxybenzyl)oxy]-1-phenyl-1H-pyrazol-4-yl}-2-propenaldehyde]
115 to 116	C=CC(c1cn(-c2ccccc2)nc1OCc1ccc(OCc2nc(-c3ccco3)oc2C)c(OC)c1)n1cncn1 (centres unmarked) [Example 110, 1-(1-{3-[(4-{[2-(2-furyl)-5-methyl-1,3-oxazol-4-yl]methoxy}-3-methoxybenzyl)oxy]-1-phenyl-1H-pyrazol-4-yl}-2-propenyl)-1H-1,2,4-triazole]
136 to 137	COc1cc(COc2nn(-c3ccccc3)cc2/C=C/c2cscn2)ccc1OCc1nc(-c2ccco2)oc1C [Example 111 (E form), 2-(2-furyl)-4-({2-methoxy-4-[({1-phenyl-4-[(E)-2-(1,3-thiazol-4-yl)ethenyl]-1H-pyrazol-3-yl}oxy)methyl]phenoxy)methyl)-5-methyl-1,3-oxazole]
137 to 138	COc1cc(COc2nn(-c3ccccc3)cc2/C=C\c2cscn2)ccc1OCc1nc(-c2ccco2)oc1C [Example 111 (Z form), 2-(2-furyl)-4-({2-methoxy-4-[({1-phenyl-4-[(Z)-2-(1,3-thiazol-4-yl)ethenyl]-1H-pyrazol-3-yl}oxy)methyl]phenoxy}methyl)-5-methyl-1,3-oxazole]

Source: patent US7368578B2, “Five-membered heterocyclic compounds” (Takeda Pharmaceutical Company Limited, priority 2002, dated 2008)
